Molecules are shown by their SMILES.

Data on eight molecules can be found in patent publication US5817766A, “Reagents for a cannabinoid immunoassay” (Roche Diagnostic Systems, Inc., priority 1995, dated 1998).

In one assay the test system is MoAb 11E.2. Put plainly: MIRA assay ABUSCREEN 100 TEST ONLINE KIT for cannabinoids, MoAb 11E.2. The assay is classed as binding, Murine. The following applies: commercial MIRA assay; (II) = 100 by definition; IgA from immunization with (VIII) alone. The source says: (§1) Table 2 below illustrates how a novel clone (11A6) derived by using the triple sequential immunization procedure described herein performs in an actual commercial MIRA (Roche Diagnostic Systems, Inc., Branchburg, N.J.) assay ABUSCREEN® 100 TEST ONLINE™ KIT (Roche Diagnostic Systems, Inc., Branchburg, N.J. immunoassay) for cannabinoids. Example 20 describes the reagents contained in Roche's commercial Abuscreen® 100 Test Online™ Kit, except that the antibody has been replaced by a novel antibody according to this invention. […] Both tables also report the corresponding results using the monoclonal antibody (11E.2) derived from immunization with a single immunogen (immunogen (VIII)).
(§2) In Table 2, MoAb 11E.2 is an IgA (dimeric) antibody, while MoAB 11A6 is an IgG (monomeric) antibody. In order to agglutinate the microparticles included in the current commercial MIRA assay when 11A6 is used, inclusion of an anti-IgG antibody (commercially available, e.g., from Biodesign Int., Kennebunk, Me. 04043, USA) was required.
(§3) This example describes the reagents contained in Roche's ABUSCREEN® 100 TEST ONLINE™ KIT (Roche Diagnostic Systems, Inc., Branchburg, N.J. immunoassay) for cannabinoids.
(§4) 1. Antibody Reagent: A cannabinoid monoclonal antibody (IgG) with a secondary antibody adjusted in concentration to give the best dynamic standard curve with desired performance characteristics around the assay cutoff. This antibody is diluted in an antibody diluent containing: 50 mM HEPES, 0.1% BSA, 0.5% sodium chloride, 0.09% sodium azide and adjusted to a pH of 6.5.
(§5) 2. Microparticle Reagent: Conjugated cannabinoids derivative microparticle in a buffer containing 10 mM kPi pH 7.5 and 0.09% sodium Azide (supplied in kit).
(§6) 3. Sample Diluent: Buffer containing 50 mM PIPES pH 7.0, 2.5% PVP, 2.0% Sodium Chloride and 0.09% sodium azide (supplied in kit).
(§7) An assay using the above reagents is performed pursuant to the directions stated in the package insert for the commercially available Roche Abuscreen® Online™ 100 test kit for cannabinoids.

For a further assay, the system named is MoAb 11A6. Put plainly: MIRA assay ABUSCREEN 100 TEST ONLINE KIT for cannabinoids, MoAb 11A6 with anti-IgG. Type of assay: binding, Murine. The following applies: commercial MIRA assay; (II) = 100 by definition; IgG from triple sequential immunization.
Excerpt: as §1, §2, §3, §4, §5, §6, §7

As to `CCCCCc1cc(O)c2c(c1)OC(C)(C)c1ccc(CO)cc1-2` [11-Hydroxycannabinol], in the assay with MoAb 11E.2, the “CROSS REACTIVITY (%) MoAb 11E.2” value turned out to be 16%. Besides, in the assay with MoAb 11A6, the “CROSS REACTIVITY (%) MoAb 11A6 with anti-IgG” value (from here on “CROSS REACTIVITY (%) MoAb 11A6”) was 35%.

On to `CCCCCc1cc(O)c2c(c1)OC(C)(C)[C@@H]1C[C@H](O)C(C)=C[C@@H]21` [(-)-8α-Hydroxy-Δ^9 -THC (VI), (-)-8α-Hydroxy-Δ^9 -THC], for which the “CROSS REACTIVITY (%) MoAb 11E.2” value in the assay with MoAb 11E.2 came to 60%. Further, the “CROSS REACTIVITY (%) MoAb 11A6” value in the assay with MoAb 11A6 turned out to be 71%.

As for `CCCCCc1cc(O)c2c(c1)OC(C)(C)[C@@H]1C[C@@H](O)C(CO)=C[C@@H]21` [(-)-8β,11-Dihydroxy-Δ^9 -THC (VII), (-)-8β,11-Dihydroxy-Δ^9 -THC], the “CROSS REACTIVITY (%) MoAb 11E.2” value with MoAb 11E.2 is reported as 14%. Besides, in the assay with MoAb 11A6, the “CROSS REACTIVITY (%) MoAb 11A6” value was determined as 36%.

As for `CCCCCc1cc(O)c2c(c1)OC(C)(C)[C@@H]1CCC(CO)=C[C@@H]21` [(-)-11-Hydroxy-Δ^9 -THC (V), (-)-11-Hydroxy-Δ^9 -THC], in the assay with MoAb 11E.2, the “CROSS REACTIVITY (%) MoAb 11E.2” value is 23%. Moreover, the “CROSS REACTIVITY (%) MoAb 11A6” value in the assay on MoAb 11A6 was 32%.

Regarding `CCCCCc1cc(O)c2c(c1)OC(C)(C)[C@@H]1CCC(C)=C[C@@H]21` [(-)-Δ^9 -THC, Δ^9 -tetrahydrocannabinol], the “CROSS REACTIVITY (%) MoAb 11E.2” value in the assay on MoAb 11E.2 was found to be 7.6%. Besides, in the assay on MoAb 11A6, the “CROSS REACTIVITY (%) MoAb 11A6” value is given as 7.3%.

Take `CCCCCc1cc(O)c2c(c1)OC(C)(C)[C@@H]1CCC(C(=O)O)=C[C@@H]21` [(-)-Δ^9-11-nor-9-COOH-THC (II), Δ^9-11-nor-9-carboxy-THC]: the “CROSS REACTIVITY (%) MoAb 11E.2” value with MoAb 11E.2 amounted to 100%. Further, the “CROSS REACTIVITY (%) MoAb 11A6” value in the assay with MoAb 11A6 is listed as 100%.

As to `C=C(C)[C@@H]1CCC(C)=C[C@H]1c1c(O)cc(CCCCC)cc1O` [Cannabidiol], the “CROSS REACTIVITY (%) MoAb 11E.2” value in the assay with MoAb 11E.2 was under 0.1%. In addition, the “CROSS REACTIVITY (%) MoAb 11A6” value in the assay with MoAb 11A6 is under 0.1%.

As to `CCCCCc1cc(O)c2c(c1)OC(C)(C)c1ccc(C)cc1-2` [Cannabinol], in the assay on MoAb 11E.2, the “CROSS REACTIVITY (%) MoAb 11E.2” value is reported as 0.6%. In addition, the “CROSS REACTIVITY (%) MoAb 11A6” value in the assay with MoAb 11A6 was found to be 1.6%.
